“Also recorded” adds a separate entry of the source. Read-outs that look alike come from different tables or passages of the source. Where no end group is shown, it is not given here.
How the values were obtained:
Type in all cases: cell-based
[1] = test system: Bacillus subtilis (KCTC 1918); details: Gram positive bacterium; 6 hours at 37° C.
Description: (§1) The present inventors measured MIC, which is the minimum concentration of not divided bacterial cell, in order to compare the antimicrobial activity of the peptide prepared by the method of <experimental example 1>.
(§2) More specifically, the present inventors used Escherichia coli, Pseudomonas aeruginosa, Proteus vulgaris, Salmonella typhimurium as a Gram negative bacterium and used Staphylococcus aureus, Listeria monocytogenes, Staphylococcus epidermidis, Bacillus subtilis as a Gram positive bacterium. In addition, Escherichia coli (ATCC 25922), Listeria monocytogenes (ATCC 19115), and Staphylococcus aureus (ATCC 25923) were provided by “American Type Culture Collection” and Bacillus subtilis (KCTC 1918), […] (KCTC 3096), Pseudomonas aeruginosa (KCTC 1637) and Proteus vulgaris (KCTC 2433) were provided by “Korean Collection for Type Cultures”. After culturing each strain by up to mid-log phase in LB medium (1% Bacto tryptone, 0.5% extraction of Bacto yeast, 1% sodium chloride; Sigma, USA) and diluting it by the bacterial cell concentration of 1×10^4 cell/100 μl with 1% Bacto pepton medium (Difco, USA), they inoculated the strain to Microtitrate Plate (Nunc, USA). The present inventors added both the peptide of the present invention (experimental group 1 and 2) synthesized in the <experimental example 1> and maternal peptide(control group) into the plate after diluting separately by 1/2 times from 25 μM/well, and cultured them for 6 hours at 37° C. In addition, they measured absorbance under 620 nm of wavelength using Microtitrate Plate reader (Merck Elisa reader, Germany) and determined the MIC value of each strain, after then they described the final result in the following Table 2.

[2] = test system: Staphylococcus epidermidis; assay: MIC, antimicrobial activity (microtitrate plate, absorbance 620 nm); details: Gram positive bacterium; 6 hours at 37° C.
Description: as §1, §2

[3] = test system: Pseudomonas aeruginosa (KCTC 1637); assay: as above; details: Gram negative bacterium; 6 hours at 37° C.
Description: as §1, §2

Salmonella typhimurium = assay: as above; details: Gram negative bacterium; 6 hours at 37° C.
Description: as §1, §2

[4] = test system: Listeria monocytogenes (ATCC 19115); assay: as above; details: Gram positive bacterium; 6 hours at 37° C.
Description: as §1, §2

[5] = test system: Proteus vulgaris (KCTC 2433); assay: as above; details: Gram negative bacterium; 6 hours at 37° C.
Description: as §1, §2

[6] = test system: Staphylococcus aureus (ATCC 25923); assay: as above; details: Gram positive bacterium; 6 hours at 37° C.
Description: as §1, §2

[7] = test system: Escherichia coli (ATCC 25922); assay: as above; details: Gram negative bacterium; 6 hours at 37° C.
Description: as §1, §2

human erythrocyte = assay: Erythrocyte hemolytic activity; details: for hemolytic activity (result in words): human erythrocyte, by the concentration of 200 μM; for % Hemolysis: 8% human erythrocyte in PBS pH 7.0, 1 hour, 1% triton X-100 = 100%
Protocol: Firstly, the present inventors diluted human erythrocyte with phosphate buffer (PBS, pH 7.0) to be a 8% concentration and then, they diluted each described peptide comprising the amino acid sequence of SEQ. ID. NO: 1 to 3 in the Table 1 continually at the 1/2 concentration starting from 200 μM and make them reacted for 1 hour at 37. After then, the present inventors measured the amount of hemoglobin included in the supernatant obtained by centrifugating it with 1,000 g and the absorbance under the 414 nm of wavelength of the supernatant. In order to investigate relative level a comparative study of cytotoxicity, they measured the absorbance of supernatant with adding 1% triton X-100 (sigma, USA) to the human erythrocyte cell. Making the cytotoxicity of 1% triton X-100 to become a 100%, the present inventors calculated hemolysis of the peptides (experimental group 1 and 2) and maternal peptides (control group) of the present invention according to the following mathematical formula.
In the mathematical formula, absorbance A means the absorbance of the peptide solution under the 414 nm of wavelength, absorbance B means the absorbance of PBS under the 414 nm of wavelength and absorbance C means the absorbance of 1% triton X-100 under the 414 nm of wavelength.

NIH3T3 cell line = assay: Cytotoxicity in the normal cell line (MTT)
Protocol: (§3) In order to confirm the cytotoxicity in the normal cell line, which was prepared by the <experimental example 1>, the present inventors measured the cytotoxicity using HaCaT cell line (Dr. N E. Fusenig, Heidelberg, Germany) and NIH3T3 cell line (ATCC(CRL-1658™)).
(§4) Specifically, they inject HaCaT cell line and NIH3T3 cell line, which were cultured in DMEM badge including 10% FBS (Fetal Bovine Serum), into 96-well plate with 3×10^3 each and cultured them for 24 hours, after then, they treated the peptides prepared by the <experimental example> to the HaCaT cell line and NIH3T3 cell line according to the concentration respectively and reacted them in the 5% CO2 incubator for 24 hours. After culturing, they put 20 ul of MTT (Thiazolyl Blue Tetrazolium Bromide) solution (5 mg/ml in PBS), into each well and reacted them four hours. And they removed supernatant and melted MTT crystal prepared by adding 200 ul of DMSO, and then they studied the result at 560 nm.

HaCaT cell line = assay: Cytotoxicity in the normal cell line (MTT)
Protocol: as §3, §4

[8] = NIH3T3 cell line, 24 hours, MTT

## AKRLKKLAKKIWKWK-NH2 [NT3-F1AF8A-A2, AKRLKKLAKKIWKWK-NH2]
[1]
  MIC Bacillus subtilis: 2 µM
[2]
  MIC Staphylococcus epidermidis: 2 to 4 µM
[3]
  MIC Pseudomonas aeruginosa: 2 µM
Salmonella typhimurium
  MIC Salmonella typhimurium: 1 to 2 µM
[4]
  MIC Listeria monocytogenes: 2 µM
[5]
  MIC Proteus vulgaris: 2 to 4 µM
[6]
  MIC Staphylococcus aureus: 4 µM
[7]
  MIC Escherichia coli: 4 µM
Human erythrocyte
  hemolytic activity (result in words): no hemolytic activity
Human erythrocyte; peptide 3.13 μM
  % Hemolysis: 0%
Human erythrocyte; peptide 6.25 μM
  % Hemolysis: 0%
Human erythrocyte; peptide 12.5 μM
  % Hemolysis: 0%
Human erythrocyte; peptide 25 μM
  % Hemolysis: 0%
Human erythrocyte; peptide 50 μM
  % Hemolysis: 0%
Human erythrocyte; peptide 100 μM
  % Hemolysis: 0%
Human erythrocyte; peptide 200 μM
  % Hemolysis: 0%
NIH3T3 cell line
  cytotoxicity (result in words, FIG. 2): little cytotoxicity
HaCaT cell line
  cytotoxicity (result in words, FIG. 1): little cytotoxicity

## AKRLKKLAKKIWNWK-NH2 [NT3-F1AF8A, AKRLKKLAKKIWNWK-NH2]
[1]
  MIC Bacillus subtilis: 4 µM
[2]
  MIC Staphylococcus epidermidis: 16 µM
[3]
  MIC Pseudomonas aeruginosa: 2 µM
Salmonella typhimurium
  MIC Salmonella typhimurium: 2 µM
[4]
  MIC Listeria monocytogenes: 2 µM
[5]
  MIC Proteus vulgaris: 4 µM
[6]
  MIC Staphylococcus aureus: 4 to 8 µM
[7]
  MIC Escherichia coli: 16 to 32 µM
Human erythrocyte
  hemolytic activity (result in words): no hemolytic activity; also recorded: did not generate hemolytic phenomenon
Human erythrocyte; peptide 3.13 μM
  % Hemolysis: 0%
Human erythrocyte; peptide 6.25 μM
  % Hemolysis: 0%
Human erythrocyte; peptide 12.5 μM
  % Hemolysis: 0%
Human erythrocyte; peptide 25 μM
  % Hemolysis: 0%
Human erythrocyte; peptide 50 μM
  % Hemolysis: 0%
Human erythrocyte; peptide 100 μM
  % Hemolysis: 0%
Human erythrocyte; peptide 200 μM
  % Hemolysis: 0%
NIH3T3 cell line; [8]
  cytotoxicity (result in words, FIG. 2): little cytotoxicity
HaCaT cell line; HaCaT cell line, 24 hours, MTT
  cytotoxicity (result in words, FIG. 1): little cytotoxicity

## FKRLKKLFKKIWNWK-NH2 [HPA3NT3, FKRLKKLFKKIWNWK-NH2, reference compound]
[1]
  MIC Bacillus subtilis: 2 µM
[2]
  MIC Staphylococcus epidermidis: 2 to 4 µM
[3]
  MIC Pseudomonas aeruginosa: 2 µM
Salmonella typhimurium
  MIC Salmonella typhimurium: 2 µM
[4]
  MIC Listeria monocytogenes: 2 µM
[5]
  MIC Proteus vulgaris: 8 µM
[6]
  MIC Staphylococcus aureus: 2 µM
[7]
  MIC Escherichia coli: 4 µM
Human erythrocyte; peptide 3.13 μM
  % Hemolysis: 0%
Human erythrocyte; peptide 6.25 μM
  % Hemolysis: 0%
Human erythrocyte; peptide 12.5 μM
  % Hemolysis: 0%
Human erythrocyte; peptide 25 μM
  % Hemolysis: 0%
Human erythrocyte; peptide 50 μM
  % Hemolysis: 7.12%
Human erythrocyte; peptide 100 μM
  % Hemolysis: 11.35%
Human erythrocyte; peptide 200 μM
  % Hemolysis: 37.23%
NIH3T3 cell line; [8]
  cytotoxicity (result in words, FIG. 2): high cytotoxicity
HaCaT cell line; HaCaT cell line, 24 hours, MTT
  cytotoxicity (result in words, FIG. 1): high cytotoxicity

Source: patent publication US8410046B2, “Antibiotic peptide derived from ribosomal protein L1 of Helicobacter pylori and use thereof” (Industry-Academic Cooperation Foundation, Chosun University, priority 2008, dated 2013)
